Legend:
[1] = target: T1, HIS-tagged recombinant PPAR β/δ protein (Homo sapiens, UniProt Q03181); assay: CNBr-drug and protein binding experiment, PPARβ/δ; details: Western blotting after 24 h incubation
T1 sequence (Q03181 211-439 limits assumed): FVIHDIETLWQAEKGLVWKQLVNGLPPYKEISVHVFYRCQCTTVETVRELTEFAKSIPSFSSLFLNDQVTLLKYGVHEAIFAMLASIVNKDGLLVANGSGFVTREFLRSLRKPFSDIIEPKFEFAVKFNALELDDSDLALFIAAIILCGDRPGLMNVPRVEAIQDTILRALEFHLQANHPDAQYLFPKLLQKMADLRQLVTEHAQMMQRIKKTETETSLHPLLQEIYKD
Protocol: Since the computer prediction program predicted that DTMB binds to PPAR transcription factors, CNBr-drug and protein binding experiments were conducted to confirm whether DTMB actually binds to PPAR. To determine the actual degree of drug-protein binding, the reaction of the protein of the PPAR-α, β/δ, γ ligand-binding portion with the DTMB drug-bound CNBr beads was confirmed through Western blotting.
Specifically, CNBr Sepharose 4B beads were prepared and activated according to the instructions. 100 mg of CNBr-activated Sepharose 4B beads were incubated with drugs or DMSO at 4° C. for 18 h. The drug-bound beads reacted with HIS-tagged recombinant PPAR α, β/δ, and γ proteins. After 24 h of incubation, Western blotting experiments were performed to confirm whether the recombinant proteins bound to the drug-bound beads.

[2] = system: RAW 264.7 cell line; assay: Cell viability assay (MTT), RAW 264.7; assay type: cell-based; details: RAW 264.7, 48 h, at higher concentrations
Protocol: Cell viability was measured by a chromogenic assay that biologically reduces 3-(4,5-dimethyl-thiazol-2-yl)-2,5-diphenyltetrazolium bromide (MTT) to formazan in living cells. Briefly, cells were cultured in 96-well plates in a final volume of 100 μL. After 24 h, the culture medium was replaced with fresh medium containing DTMB compound, and the cells were cultured for another 48 h. Next, MTT (dissolved in PBS at 5 mg/mL) was added to the culture medium. The cells were cultured in the dark at 37° C. for 1 h, and then the supernatant was removed from the wells. The formazan crystals were dissolved by adding total MTT solvent (4 mM HCl and 0.1% Nonidet P-40, both dissolved in isopropanol), and the absorbance was measured at 570 nm using a microplate reader, Infinite 200 Pro NanoQuant microplate reader (TECAN, Switzerland).

[3] = system: BV2 microglial cell line; assay: Cytokine ELISA in BV2 microglia; assay type: cell-based, mouse; details: BV2 treated with LPS or Aβ aggregates, DTMB 24 h
Protocol: (§1) To confirm a more clear anti-inflammatory effect, the microglia cell line (BV2) and microglia isolated from mice were treated with lipopolysaccharide (LPS) and Aβ aggregates to induce an inflammatory response, and then DTMB was treated to measure the decrease in cytokine levels in microglia by DTMB treatment using ELISA.
The BV2 mouse microglia cell line was provided by Professor Seok Kyung-ho of Kyungpook National University. BV2 cells were cultured in a 5% CO2 incubator with a humidified atmosphere at 37° C. with Dulbecco's Modified Eagle Medium (DMEM) (Hyclone, Logan, UT, USA) containing 5% fetal bovine serum (FBS, Hyclone) and 50 μg/mL gentamicin (Lonza, Switzerland).
Cytokine levels (TNF-α, IL-1β, and IL-6) were measured in the media of BV2 microglia and primary microglia treated with LPS (1 μg/mL) and human Aβ1-42 (5 μg/mL). Human Aβ1-42 (AnaSpec, Fremont, CA, USA) was pre-aggregated in the culture medium for 24 h before cell treatment. BV2 cells and primary microglia were seeded in 12-well plates (SPL) at a density of 1× 10^5 cells/well in 1 mL of complete medium. After 12 h, cells were treated with LPS or human Aβ1-42 and further cultured with DTMB for 24 h. […]

[4] = system: primary microglia isolated from mouse; assay: Cytokine ELISA in primary microglia; assay type: cell-based; details: primary microglia treated with LPS or Aβ aggregates, DTMB 24 h
Protocol: as §1
Primary microglial culture was performed as described in the literature [Lian H, Roy E, Zheng H. Protocol for primary microglial culture preparation. Bio-protocol. 2016; 6(21)]. Postnatal day 3 mice were used for primary microglial cell preparation. Newborn mouse pups were anesthetized on ice and then sacrificed. The isolated cortex and hippocampus were collected after removing the meninges. The brain tissues were dissociated by incubation with trypsin (2.5%) in HBSS (Gibco, Gaithersburg, MD, USA) for 15 min. The cell homogenate was then cultured in M-CSF (20 ng/mL, R&D Systems) supplemented with DMEM-F12 medium containing 10% fetal bovine serum, 10% horse serum, 1% GlutaMAX (Gibco, MD, USA), and 1% penicillin/streptomycin (Welgene, Korea). After 10 days, microglia were purified by shaking at 260 rpm for 2 h.
Cytokine levels (TNF-α, IL-1β, and IL-6) were measured in the media of BV2 microglia and primary microglia treated with LPS (1 μg/mL) and human Aβ1-42 (5 μg/mL). […]

[5] = system: 5×FAD mice; assay: Western blot and qPCR of APP and β-/γ-secretase in brain tissue; assay type: in vivo, mouse; details: DTMB 10 mg/kg orally
Protocol: Aβ peptides are generated from amyloid precursor protein (APP) by the action of β- and γ-secretase. It is possible that DTMB acts on APP processing to inhibit the formation of Aβ aggregates. To investigate this possibility, the protein levels of total APP and components of β- and γ-secretase were measured in the hippocampus and cortex using western blot and qPCR.
To investigate the soluble and insoluble Aβ components, two extraction steps were performed. Left hemisphere samples were homogenized at a concentration of 100 mg/mL in cold Tris-buffered saline (TBS consisting of 50 mM Tris-pH 7.5 and 150 mM NaCl) with a protease inhibitor cocktail (Thermo Fisher Scientific, Waltham, MO, USA). After centrifugation at 15,000 rpm for 1 hour at 4° C., the supernatant of the sample was used for western blotting. Insoluble proteins were extracted from the pellet by dissolving in 5 M guanidine buffer (5 M guanidine HCl and 150 mM NaCl-pH 7.5). Soluble and insoluble protein samples were stored at −80° C.
Western blot analysis was performed in the same manner as in Example 2-4 using primary antibodies against nicastrin, pen2 (Cell Signaling Technology, Danvers, MA, USA), Aph1 (Invitrogen), amyloid C-terminal fragment (Santa Cruz Biotechnology, Dallas, TX, USA), and GAPDH (Bethyl Laboratories, Mongomery, TX, USA). Secondary antibodies from rabbit (Promega), rat, and goat (Bethyl Laboratories) were used, and detection was performed using SUPEX ECL reagent (Neuronex, Korea) and ImageQuant LAS-4000 (GE Healthcare, MA, USA) according to the manufacturer's instructions. Integrated blot densities were quantified using ImageJ.

With COc1ccc(-c2cc(=O)oc3c(C)c(OC(=O)[C@H](Cc4c[nH]c5ccccc45)NC(=O)OC(C)(C)C)ccc23)cc1 [DTMB, [4-(4-Methoxyphenyl)-8-methyl-2-oxochromen-7-yl](2S)-3-(1H-indol-3-yl)-2-[(2-methylpropan-2-yl)oxycarbonylamino]propanoate] the “Binding of PPARβ/δ ligand-binding protein to drug-bound CNBr beads” value [1] was “binds to all subtypes of PPAR”, the “Cytotoxicity (MTT)” value [2] was “no cytotoxicity” and the “Level of IL-6” value [3] was “statistically significantly reduced”. The “Level of TNF-α” value [3] was “statistically significantly reduced”, the “Level of IL-6” value [4] was “statistically significantly reduced” and the “Level of TNF-α” value [4] was “statistically significantly reduced”. The “Protein level of β-secretase” value ([5]; cortex) was “slightly decreased”, the “APP protein and mRNA levels” value ([5]; hippocampus) was “no changes” and the “Protein levels of β- and γ-secretase” value ([5]; hippocampus) was “no changes”.
